Measurements taken from US5441875A, “Urea transporter polypeptide” (Brigham and Women's Hospital, priority 1993, dated 1995).
Read-outs that look alike come from different tables or passages of the source.

What was measured:
[1] = biological target: T1, urea transporter polypeptide (Oryctolagus cuniculus, UniProt Q28614); assay: cell-based; conditions: for inhibition of urea transport by urea analogues: 150 mM analogue; for effect of cAMP analogues on urea transporter-facilitated urea transport: 30 minute preincubation, 1 mM per analogue; for effect on urea uptake of replacing mannitol in the incubation solution: 100 mM replacing mannitol
T1 sequence (Q28614 1-397): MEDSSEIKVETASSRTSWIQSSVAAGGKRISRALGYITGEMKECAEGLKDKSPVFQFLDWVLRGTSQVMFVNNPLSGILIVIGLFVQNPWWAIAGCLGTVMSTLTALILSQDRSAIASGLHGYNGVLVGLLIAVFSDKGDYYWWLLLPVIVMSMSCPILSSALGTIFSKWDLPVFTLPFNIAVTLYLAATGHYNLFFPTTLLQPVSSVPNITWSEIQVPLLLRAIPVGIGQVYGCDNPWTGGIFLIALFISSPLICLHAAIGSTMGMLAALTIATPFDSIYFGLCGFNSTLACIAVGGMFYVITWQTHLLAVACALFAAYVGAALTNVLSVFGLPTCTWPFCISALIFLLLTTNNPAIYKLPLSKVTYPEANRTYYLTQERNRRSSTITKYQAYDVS
Description: (§1) The rabbit kidney medulla mRNA that is size fractionated by the preparative agarose gel electrophoresis was analyzed by oocyte expression assay. Large, fully grown oocytes (stage 5 and 6) with a diameter of 1.2-1.3 mm were hand dissected from ovarian fragments of Xenopus laevis, treated with 2 mg/ml type 1A collagenase to remove follicular cells and incubated in Barth's solution (in mM: 88 NaCl; 0.82 MgSO4; 0.33 Ca (NO3)2; 0.41 CaCl2; 2.4 NaHCO3; 10 HEPES, pH 7.4; 200 mosmol). After 16-24 hours, oocytes were injected with about 50 nl of mRNA or water and incubated in Barth's solution with gentamicin at about 18° C. for another three days after which uptake of ^14 C-urea was measured.
(§2) Unlabelled urea was deionized by passing it through an ion exchange column (AG501-X8 (D), 20-50 Mesh, Bio Rad) immediately before use. The uptake solution consisted of 2 microcuries ^14 C-urea; 1 mM urea; 200 mM mannitol; […]; 1 mM MgCl2; 1 mM CaCl2; 10 mM HEPES; and 5 mM TRIS, unless otherwise specified. In all uptake experiments oocytes were pre-incubated in uptake solution minus urea for one hour. After completion of the uptake, oocytes were washed with ice-cold wash solution (uptake solution without the labelled urea), dissolved in 10% SDS and used for scintillation counting.
Urea transport in the mammalian kidney is generally considered to be passive, although there is some evidence for active ion coupled transport. In studies addressing ion dependencies, urea uptake was measured in oocytes injected with urea transporter cRNA, as described above in Example 1. In the incubation solution, however, mannitol was replaced by NaCl (100 mM), choline chloride (100 mM) or sodium acetate (100 mM).
To study the uptake inhibition by phloretin, phloretin (Sigma) was dissolved in ethanol at 0.5M and added to the uptake solution to give the desired final concentration of 0.35 mM and 0.70 mM. The concentration of ethanol was no more than 0.1%. Ethanol at the same concentration is added to uptake solution without phloretin. Following 15 min pre-incubation in phloretin, ^14 C-urea was added and urea flux was then measured during 90 seconds.
For inhibition studies using urea analogues, all analogues were deionized as described in Example 1 immediately before use. […] Chou and Knepper, 257 Am. J. Physiol. F359-365 (1989).
It is possible that facilitation of urea transport by vasopressin is the result of direct phosphorylation of the transporter or of recruitment of functional transporters from intracellular vesicle pools.

[2] = tested on: urea transport in UT1 cRNA-injected oocytes; assay: 14C-urea uptake into Xenopus oocytes injected with UT1 cRNA; format: cell-based, Xenopus laevis
Description: as §1, §2

[3] = tested on: urea transport induced by rabbit kidney medulla poly(A)+ RNA; assay: 14C-urea uptake into Xenopus oocytes injected with poly(A)+ RNA from rabbit kidney medulla; format: cell-based; conditions: phloretin 0.25 mM, 14C-urea 50 mM
Description: Messenger RNA, fractionated as above, was collected in 0.6 ml fractions. In preliminary experiments, uptake of ^14 C-labelled urea (50 mM) was measured three days after injection at 5, 30 and 60 minute intervals. […] Phloretin at 0.25 mM inhibited the 30 minute uptake of urea by approximately 50%.

[4] = biological target: T1, urea transporter polypeptide; assay: Two-microelectrode voltage clamp on urea transporter cRNA-injected oocytes; format: cell-based, rabbit; conditions: urea 1 and 100 mM; holding potential -60 mV
Description: Electrophysiological studies are in agreement with this finding. Electrophysiological measurements were made on oocytes 3-4 days after injection with urea transporter cRNA-injected oocytes using conventional two-microelectrode voltage clamp methods (Axoclamp-2A, Axon Instruments). Membrane current was measured in a standard bath of 96 mM NaCl; 2 mM KCl; 1.8 mM CaCl2; 1.0 mM MgCl2; and 5 mM HEPES, pH 7.4, at a holding potential of -60 mV.

[5] = tested on: water-injected control oocytes; conditions: not told, 1000 µM
Description: as §1, §2

[6] = read-out: inhibition of urea uptake

In the case of `CN(C)C(N)=O` [1,1-dimethylurea], the “inhibition of urea transport by urea analogues” value (“inhibition … by urea analogues” for short) ([1]; 14C-urea 1 mM) is reported as “no significant effect”.

With `CNC(=O)NC` [1,3 dimethylurea, 1,3-dimethylurea] the “inhibition … by urea analogues” value ([1]; 14C-urea 1 mM) was 65%.

With `Nc1ncnc2c1nc(Br)n2[C@@H]1O[C@@H]2COP(=O)(O)O[C@H]2[C@H]1O` [8-bromo-cAMP] the “effect of cAMP analogues on urea transporter-facilitated urea transport” value (“effect of cAMP analogues” for short) [1] was “no effect”.

`CNC(N)=O` [N-methylurea] was tested, and the “inhibition … by urea analogues” value ([1]; 14C-urea 1 mM) was 38%.

With `[Cl-].[Na+]` [NaCl] the “effect on urea uptake of replacing mannitol in the incubation solution” value (shortened to “effect on urea uptake”) [1] was “did not alter urea uptake”.

With `Nc1ncnc2c1ncn2C1OC2COP(O)(=S)OC2C1O` (stereo not shown) [Sp-cAMPS] the “effect of cAMP analogues” value [1] was “no effect”.

With `NC(N)=S` [Thiourea, thiourea] the “inhibition … by urea analogues” value ([1]; 14C-urea 1 mM) was 38%.

For `CC(N)=O` [acetamide], the “inhibition … by urea analogues” value ([1]; 14C-urea 1 mM) was “no significant effect”.

With `C[N+](C)(C)CCO.[Cl-]` [choline chloride] the “effect on urea uptake” value [1] was “no effect”.

For `CCCC(=O)Nc1ncnc2c1ncn2[C@@H]1O[C@@H]2COP(=O)(O)O[C@H]2[C@H]1OC(=O)CCC` [dibutyryl cyclic-AMP], the “effect of cAMP analogues” value [1] was “no effect”.

Molecule `O=C(CCc1ccc(O)cc1)c1c(O)cc(O)cc1O` [phloretin] has an inhibition at 350 µM [1, 6] of 48%, an inhibition at 700 µM [1, 6] of 78% and an inhibition at 350 µM ([1]; read-out: inhibition of urea uptake (phloretin-sensitivity of clone pool)) of roughly 50%. For the same molecule, the “phloretin sensitivity of UT1-induced urea transport” value [2] was “not phloretin-sensitive” and the “inhibition of the 30 minute uptake of urea” value [3] was “approximately 50%”.

`CC(=O)O` [sodium acetate] was tested, and the “effect on urea uptake” value [1] was “no effect”.

For `NC(N)=O` [urea], the “membrane current evoked by bath applied urea” value [4] was “did not evoke a significant current”, the “maximum uptake of 14C-urea” value ([1]; 14C-urea 1 mM, between 10 and 30 minutes) was “approximately 250 pmoles/oocyte” and the “saturation of urea transporter polypeptide-mediated urea transport” value ([1]; concentration range between 1 and 200 mM urea) was “no saturation”. The “urea permeability of urea transporter-injected oocytes” value ([1]; not told, 1000 µM) was 45 ×10⁻⁶ cm/s and the “permeability of water-injected control oocytes for urea” value [5] was 1.9 ×10⁻⁶ cm/s.

B1: urea transporter: 397-amino acid residue membrane glycoprotein from rabbit kidney medulla (SEQ ID NO.: 2), expressed from UT2 cRNA (protein)
chain: MEDSSEIKVETASSRTSWIQSSVAAGGKRISRALGYITGEMKECAEGLKDKSPVFQFLDWVLRGTSQVMFVNNPLSGILIVIGLFVQNPWWAIAGCLGTVMSTLTALILSQDRSAIASGLHGYNGVLVGLLIAVFSDKGDYYWWLLLPVIVMSMSCPILSSALGTIFSKWDLPVFTLPFNIAVTLYLAATGHYNLFFPTTLLQPVSSVPNITWSEIQVPLLLRAIPVGIGQVYGCDNPWTGGIFLIALFISSPLICLHAAIGSTMGMLAALTIATPFDSIYFGLCGFNSTLACIAVGGMFYVITWQTHLLAVACALFAAYVGAALTNVLSVFGLPTCTWPFCISALIFLLLTTNNPAIYKLPLSKVTYPEANRTYYLTQERNRRSSTITKYQAYDVS
modifications: glycosylated
For B1, the “increase of the permeability of oocytes to urea” value ([1]; versus water-injected control oocytes) was 23 fold.
